Measured values: ChEMBL document CHEMBL1201862, “PubChem BioAssay data set” (2004)
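Cultured in 96-well plates, cells were exposed to test compound for 48 hours across five concentrations. GI50 marks 50% less growth.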 Activity calls are given as the source filed them. Cut-off read from the data, not from the text of the source: active = GI50 up to about 1.1 µM and inactive = higher.

Assays:
Test in all cases: NCI anticancer screen, dose series, 48 h
DMS-273 = system: DMS-273
M19-MEL = system: M19-MEL
XF498 = system: XF498
DU-145 = system: DU-145
Hs-578T = system: Hs-578T
MDA-N = system: MDA-N
MCF7 = system: MCF7
BT-549 = system: BT-549

| SMILES | GI50 (DMS-273) | GI50 (M19-MEL) | GI50 (XF498) | GI50 (DU-145) | GI50 (Hs-578T) | GI50 (MDA-N) | GI50 (MCF7) | GI50 (BT-549) |
| --- | --- | --- | --- | --- | --- | --- | --- | --- |
| C=C1Oc2nc3ccccc3c(=O)n2C1(C)C | > 100 µM (inactive) | > 100 µM (inactive) | > 100 µM (inactive) |  |  |  |  |  |
| CC(C)Oc1cccc(N2C(n3ccnc3)=Nc3ccncc3S2(=O)=O)c1 |  |  |  | 12.2 µM (inactive) | 19 µM (inactive) | 12.8 µM (inactive) | 10.1 µM (inactive) | 15.5 µM (inactive) |
| CC1(c2nc3ccccc3[nH]2)CCC(C#N)C(C)(C)O1 (stereo unspecified) |  |  |  | > 100 µM (inactive) | > 100 µM (inactive) | > 100 µM (inactive) | > 100 µM (inactive) | > 100 µM (inactive) |
| NC(=O)c1ccccc1NC(=O)C(=O)C(c1cnc2ccc([N+](=O)[O-])cc2n1)[N+](=O)[O-] (stereo unspecified) |  |  |  |  | > 100 µM (inactive) |  | 62.1 µM (inactive) | > 100 µM (inactive) |
| CSc1nc2nc(C)c(C)nc2c(=O)[nH]1 | > 100 µM (inactive) | > 100 µM (inactive) | > 100 µM (inactive) |  |  |  |  |  |
| S=C(S)N1CCN(c2ccccc2)CC1 |  |  |  | > 100 µM (inactive) | > 100 µM (inactive) | > 100 µM (inactive) | > 100 µM (inactive) | > 100 µM (inactive) |
| COc1ccc(/N=C\c2cc(OC)c(OC)c(OC)c2)cc1 |  | > 100 µM (inactive) | > 100 µM (inactive) |  |  |  |  |  |
| C#CCN1C(=O)CN2C(Cl)(Cl)C2(c2ccccc2)c2cc(Cl)ccc21 (stereo unspecified) | 41.7 µM (inactive) | 84.3 µM (inactive) |  |  |  |  |  |  |
| N#C/N=[N+](\[O-])c1ccc(C(=O)O)cc1 |  |  |  |  | 30.8 µM (inactive) |  | 19.2 µM (inactive) | 16.4 µM (inactive) |
| O=c1[nH]nc(-c2ccccc2)n1/N=C/c1ccccc1Cl |  |  |  | 41.3 µM (inactive) | 16.2 µM (inactive) | 33.1 µM (inactive) | 31.8 µM (inactive) | 37.1 µM (inactive) |
| COc1cc(CO)c(CC(=O)NCCCc2ccccc2)cc1OC |  |  |  | > 100 µM (inactive) | > 100 µM (inactive) | 34.1 µM (inactive) |  | > 100 µM (inactive) |
| COc1cc(C)cc(OC)c1/C=C/C(=O)O |  |  |  |  | 24.8 µM (inactive) | > 100 µM (inactive) |  | > 100 µM (inactive) |
| CC(C)=CCN1c2ccc(Cl)cc2NC(=O)CC1C (stereo unspecified) |  |  |  | 42.1 µM (inactive) | 24.3 µM (inactive) | 21.7 µM (inactive) | 21.4 µM (inactive) | 21.8 µM (inactive) |
| COc1c2c(nc3ccccc13)-c1cc3c(c(=O)n1C2)COC(=O)C3(O)CC(=O)N1CCOCC1 (stereo unspecified) | 1.11 µM (active) | 5.58 µM (inactive) | 7.96 µM (inactive) | 3.3 µM (inactive) | 12.6 µM (inactive) | 19.5 µM (inactive) | 1.06 µM (active) | 5.62 µM (inactive) |
| C=C1CC(C)(COc2ccc3c(C)c(C)c(=O)oc3c2C)OC1=O (stereo unspecified) |  |  |  | 2.51 µM (inactive) | 1.9 µM (inactive) | 1.77 µM (inactive) | 1.29 µM (inactive) | 1.5 µM (inactive) |
| COc1ccc2c(c1)OCCC1=C2SCC2(C)CCN=C12 (stereo unspecified) | > 100 µM (inactive) |  | > 100 µM (inactive) |  |  |  |  |  |
| CCOC(=O)c1csc(NC(=O)CCN2CCCCC2)n1 |  |  |  | > 100 µM (inactive) |  | > 100 µM (inactive) | > 100 µM (inactive) |  |
| COc1ccc(OC)c(/C=C/NC=O)c1 | > 100 µM (inactive) | > 100 µM (inactive) | > 100 µM (inactive) | > 100 µM (inactive) |  |  |  |  |
| BrP(NC1CCCCCC1)(c1ccccc1)(c1ccccc1)c1ccccc1 |  |  |  | 8.26 µM (inactive) | 3 µM (inactive) |  | 2.5 µM (inactive) | 3.26 µM (inactive) |
| COc1ccc(C(C2C(=O)N(C)C(=O)N(C)C2=O)C(F)(F)C(=O)N(C)C)cc1 (stereo unspecified) |  |  |  | > 100 µM (inactive) |  |  | > 100 µM (inactive) | > 100 µM (inactive) |
| C=CC[N+]12CN3CN(CN(C3)C1)C2 |  |  |  | 21.1 µM (inactive) | > 100 µM (inactive) | 17.3 µM (inactive) | 30.1 µM (inactive) | 26.7 µM (inactive) |
| Cc1ccc(N2Cc3c(ccc4ccccc34)OP2(=O)Oc2ccc(Cl)c(C)c2)cc1 (stereo unspecified) | > 77.8 µM (inactive) | > 100 µM (inactive) | > 100 µM (inactive) |  |  |  | 18.4 µM (inactive) |  |
| CCOC(=O)c1ccc(C(=O)n2ccnc2)[nH]1 |  |  |  | > 100 µM (inactive) | > 100 µM (inactive) | > 100 µM (inactive) | > 100 µM (inactive) | > 100 µM (inactive) |
| CCOC(=O)CC[C@H](NC(=O)c1nc[nH]c1/N=N/N(C)C)C(=O)OCC | > 100 µM (inactive) | > 100 µM (inactive) | 15.3 µM (inactive) |  |  |  |  |  |
| O=C1CCC2COc3ccc(O)c1c32 (stereo unspecified) | > 100 µM (inactive) | > 100 µM (inactive) | > 100 µM (inactive) |  |  |  |  |  |
| COc1ccc(N(C)C(=O)N(C)c2ccc([N+](=O)[O-])cc2)cc1 |  |  |  | 90.6 µM (inactive) | 6.4 µM (inactive) | 9.25 µM (inactive) | 39.1 µM (inactive) | 44.8 µM (inactive) |
| Oc1cc(O)c2c(c1)O[C@H](c1ccc(O)c(O)c1)[C@@H](O)C2 [CIANIDANOL] |  |  |  | > 100 µM (inactive) | > 100 µM (inactive) | > 100 µM (inactive) | > 100 µM (inactive) |  |
